Data: paper PMC7698860, “Discovery and Design of Novel Small Molecule GSK-3 Inhibitors Targeting the Substrate Binding Site” (International Journal of Molecular Sciences, 2020)
Each block holds one molecule with its values, some of them ahead of it.

Key:
[1] = test system: Mouse hippocampal primary neurons; test: β-catenin immunostaining in hippocampal primary neurons; assay type: cell-based; conditions: 4-4 5 μM, CHIR99021 10 μM, 4 h
Description: Hippocampi were isolated from C57BL6/J mice (0–1 day old), and tissues were digested with trypsin type XI (Sigma, Rehovot, Israel, Cat # T1005), and DNase type IV (Sigma, cat #D5025). Cells were suspended in a plating medium including MEM supplemented with 10% FBS, transferrin (0.089 mg/m), GlutaMAX (0.75 U/mL) (Sigma, Cat # 35050-038), insulin (16 μM) (Roche, Basel, Switzerland, Cat # 45865100), and SM1 neuronal supplement (STEMCELL, Seattle, WA, USA, Cat # 05711), and plated on glass coverslips coated with Matrigel (Corning, NY, USA, Cat# 356234) in a 24-well plate. […]
Primary neuron cells were treated with 4-4 (5 μM), CHIR99021 (10 μM) (Merck, MA, USA), or, vehicle (DMSO/1%Tween 80) for 4 hr. Cells were fixed with 4% PFA and immunostained with anti-βcatenin and anti-MAP2 (Sypnactic System, Goettingen, Germany, A neuronal marker) antibodies. βcatenin signal was evaluated by Image J software using co-localization finder plugin (https://imagej.nih.gov/ij/plugins/colocalization-finder.html) that calculated the ratio of βcatenin over MAP2 and DAPI in each cell. The average ratio that was determined for control vehicle-treated cells was set to 1 and respective folds of treated cells were calculated accordingly.

GSK-3β [2] = molecular target: T1, GSK-3β (Oryctolagus cuniculus, UniProt A0A5F9DUX8); test: In vitro GSK-3β kinase assay (ELISA-based, IRS-1 peptide substrate); assay type: biochemical, rabbit; conditions: for IC50: GSK-3β inhibition, 10 μM ATP; for IC50 / GSK-3β inhibition (in words): in vitro kinase assay; for GSK-3β inhibition (in words): screening hits; for Effect of Triton ×100 on inhibition of GSK-3β: 20 μM, 0.05% Triton ×100 (colloidal aggregation control)
T1 sequence (A0A5F9DUX8 entry or part of it): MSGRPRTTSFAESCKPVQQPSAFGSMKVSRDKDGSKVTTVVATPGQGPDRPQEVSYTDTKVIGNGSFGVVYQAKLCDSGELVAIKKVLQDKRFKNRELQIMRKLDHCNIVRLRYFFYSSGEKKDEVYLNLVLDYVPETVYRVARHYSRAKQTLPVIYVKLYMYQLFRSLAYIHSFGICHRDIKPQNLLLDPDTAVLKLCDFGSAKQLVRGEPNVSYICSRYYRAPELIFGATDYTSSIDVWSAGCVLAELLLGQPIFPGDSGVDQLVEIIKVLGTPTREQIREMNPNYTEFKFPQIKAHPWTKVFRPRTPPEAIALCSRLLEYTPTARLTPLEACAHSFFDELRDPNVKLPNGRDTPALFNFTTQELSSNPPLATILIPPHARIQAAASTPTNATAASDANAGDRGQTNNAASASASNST
Description: (§1) An ELISA-based assay was developed in our laboratory to measure GSK-3 activity. In brief, biotin-labelled IRS-1 peptide substrate was bound to streptavidin-coated 96-well microplates. A GSK-3 assay solution (0.1 μg GSK-3β, 20 mM Tris (pH 7.3), 10 mM MgCl2, and 10 μM ATP) was added to each well, together with the candidate compound at indicated concentrations, and the plates were incubated for 15 min at 30 °C. After having been washed (PBS 0.05% tween), the plates were incubated with a specific anti-phospho IRS-1 antibody (Ser^332) (1:2000), followed by HRP-secondary antibody (1:8000). The signal was developed with TMB solution (abcam, Cambridge UK, Cat# ab210902), stopped with H2SO4, and monitored in a plate reader ([…]). Assays were conducted in duplicates in three independent experiments. In the ATP competitive, or, substrate competitive assays, the assays (60 μL) were performed in Eppendorf tubes (to use “unbound” substrate), and 10–20 μL were spotted on the streptavidin-coated plates. Km values were calculated from the non-linear curve fit, and Ki values were calculated by Kapp = Km (1 + [I]/Ki). Bacterially expressed His-tagged rabbit GSK-3β was purified as described, and purified human GSK-3α was purchased from abcam (Cat# ab42597). The selectivity of compound 4-4 against a collection of protein kinases was assayed at the International Center for Kinase Profiling at the MRC unit, University of Dundee, UK.

GSK-3β [3] = molecular target: T1, GSK-3β; test: Michaelis Menten ATP competitive and substrate competitive assays; assay type: biochemical, rabbit; conditions: Lineweaver-Burk plots; for Mode of inhibition versus substrate: lines intersect at the Y-axis
Description: We next performed Michaelis Menten competitive assays to examine the ability of 4-3 or 4-4 to compete with ATP or with substrates. […] Subsequently, Michaelis Menten substrate competitive assays were performed and data were analyzed by Lineweaver–Burk plots (Figure 6B). […] The calculated ki values were 7.7 ± 3 and 7.0 ± 0.2 for 4-3 and 4-4 respectively. […] While most of our experiments concentrated on GSK-3β, we also tested the inhibition of GSK-3α by compounds 4-1 through 4-5. […] Inhibition of GSK-3β by 4-3 or 4-4 was not affected by the detergent (Figure 6E). As a final caveat, we evaluated the selectivity of our leading compound 4-4.
as §1

GSK-3β-F93A mutant = test: In vitro kinase assay with GSK-3β-F93A mutant; assay type: biochemical
Source text: To further confirm that compounds interact with the GSK-3β substrate binding site, we performed in vitro kinase assays with the GSK-3β-F93A mutant in which Phe 93 was replaced by alanine. […] This, in contrast, to SB216763, an established GSK-3 ATP competitive inhibitor [46] that inhibited both wild-type (WT) and the F93A mutant (Figure 3B).
as §1

SH-SY5Y cells = test: Cytoplasmic β-catenin levels in SH-SY5Y cells (immunoblot); assay type: cell-based, human; conditions: 4 h
Description: To verify the potential biological activity of our SCI compounds, we tested their ability to inhibit cellular GSK-3. We focused on the SCI compound 4-4 that was the best inhibitor of the five molecules that were tested (4-1–4-5) β-catenin, which is a central Wnt signaling component, and a well-established GSK-3 target. β-catenin phosphorylation by GSK-3 triggers its rapid proteasomal degradation. We, therefore, studied potential alterations in β-catenin levels following treatment with 4-4. Human neuroblastoma SH-SY5Y cells were treated with increasing concentrations of 4-4, and the levels of β-catenin were determined in the cytoplasmic fraction (prepared after cell permeabilization and sup collection), this to avoid possible “masking” of membrane-associated β-catenin. […]
(§2) Equal amounts of proteins (30–50 μg) were subjected to SDS PHAGE gel electrophoresis, transferred to nitrocellulose membranes, and immunoblotted with selected antibodies followed by incubation with HRP-linked anti-rabbit, or, anti-mouse IgG (Cell signaling, MA, USA, and Jackson Immune Research, PA, USA, respectively). ECL developed membranes were imaged in UVITEC Alliance biomolecular imaging, and densitometry analysis of respected bands was analyzed with software provided by the vendor. […]

[4] = test system: Mouse hippocampal primary neurons; test: Tau (Ser 396) phosphorylation in hippocampal primary neurons (immunoblot); assay type: cell-based; conditions: 20 μM, 4 h
Description: Hippocampi were isolated from C57BL6/J mice (0–1 day old), and tissues were digested with trypsin type XI (Sigma, Rehovot, Israel, Cat # T1005), and DNase type IV (Sigma, cat #D5025). Cells were suspended in a plating medium including MEM supplemented with 10% FBS, transferrin (0.089 mg/m), GlutaMAX (0.75 U/mL) (Sigma, Cat # 35050-038), insulin (16 μM) (Roche, Basel, Switzerland, Cat # 45865100), and SM1 neuronal supplement (STEMCELL, Seattle, WA, USA, Cat # 05711), and plated on glass coverslips coated with Matrigel (Corning, NY, USA, Cat# 356234) in a 24-well plate. The day after plating and twice a week thereafter half of the medium was removed and was replaced with by fresh feeding medium (plating medium lacking insulin and containing Ara-C (3 μM)) (Sigma, Cat# C6645).
as §2, with “vendor. Representative protein bands were taken from the same gel, and each gel represents three independent experiments.” for “vendor.”

30 protein kinases = test: Selectivity against a collection of protein kinases (International Center for Kinase Profiling, Dundee); assay type: biochemical; conditions: 10 μM
Description: An ELISA-based assay was developed in our laboratory to measure GSK-3 activity. In brief, biotin-labelled IRS-1 peptide substrate was bound to streptavidin-coated 96-well microplates. A GSK-3 assay solution (0.1 μg GSK-3β, 20 mM Tris (pH 7.3), 10 mM MgCl2, and 10 μM ATP) was added to each well, together with the candidate compound at indicated concentrations, and the plates were incubated for 15 min at 30 °C. After having been washed (PBS 0.05% tween), the plates were incubated with a specific anti-phospho IRS-1 antibody (Ser^332) (1:2000), followed by HRP-secondary antibody (1:8000). The signal was developed with TMB solution (abcam, Cambridge UK, Cat# ab210902), stopped with H2SO4, and monitored in a plate reader ([…]). Assays were conducted in duplicates in three independent experiments. In the ATP competitive, or, substrate competitive assays, the assays (60 μL) were performed in Eppendorf tubes (to use “unbound” substrate), and 10–20 μL were spotted on the streptavidin-coated plates. Km values were calculated from the non-linear curve fit, and Ki values were calculated by Kapp = Km (1 + [I]/Ki). Bacterially expressed His-tagged rabbit GSK-3β was purified as described, and purified human GSK-3α was purchased from abcam (Cat# ab42597). […]

Molecule: Cc1c[nH]c(-c2cnc(NCCNc3ccc(C#N)cn3)nc2-c2ccc(Cl)cc2Cl)n1 [CHIR9920, reference compound]
β-catenin levels in soma and dendrites of neurons [1]: significant increase

Molecule: Cc1sc2nc3c(SC(C)C(=O)O)cc(C(=O)c4ccccc4O)cn3c(=O)c2c1C (stereo not shown) [Compound 1-6]
IC50 (GSK-3β [2]): 200 ± 30 µM

Molecule: O=C(O)CC1S/C(=N/N=C/c2cc(Br)ccc2OCc2ccc(Cl)cc2)NC1=O (stereo not shown) [Compound 1-7]
IC50 (GSK-3β [2]): 180 ± 20 µM

Molecule: O=C(O)CCCNc1cc(N2CCN(c3ccc(F)cc3)CC2)c2noc3c2c1C(=O)c1ccccc1-3 [Compound 2-1]
GSK-3β inhibition (in words) (GSK-3β [2]): best GSK-3β inhibitors

Molecule: O=C(O)CCCNc1cc(N2CCN(C(=O)c3ccco3)CC2)c2noc3c2c1C(=O)c1ccccc1-3 [Compound 2-2]
IC50 (GSK-3β [2]): 21 ± 4 µM | GSK-3β inhibition (in words) (GSK-3β [2]): best GSK-3β inhibitors

Molecule: O=C(O)CCNc1cc(N2CCN(C(=O)c3ccco3)CC2)c2noc3c2c1C(=O)c1ccccc1-3 [Compound 3-5]
IC50 (GSK-3β [2]): > 21 µM

Molecule: O=C(O)CCNc1cc(N2CCN(c3ccc(F)cc3)CC2)c2noc3c2c1C(=O)c1ccccc1-3 [Compound 3-8]
IC50 (GSK-3β [2]): 8 ± 3 µM

Molecule: O=C(O)CNc1cc(N2CCC(c3ccccc3)CC2)c2noc3c2c1C(=O)c1ccccc1-3 [Compound 3-9]
IC50 (GSK-3β [2]): > 21 µM

Now from value to molecule, other results behind:

IC50 (GSK-3β [2]): > 21 µM
Molecule: CCOC(=O)C1CCCN(c2cc(Nc3ccc(C(=O)O)cc3)c3c4c(onc24)-c2ccccc2C3=O)C1 (stereo not shown) [Compound 3-13]

Mode of inhibition versus ATP (GSK-3β [3]): non-competitive inhibitors for ATP | Mode of inhibition versus substrate (GSK-3β [3]): substrate competitive inhibitors | Inhibition of F93A mutant (GSK-3β-F93A mutant; 20 μM each): did not inhibit | Effect of Triton ×100 on inhibition of GSK-3β (GSK-3β [2]): not affected | IC50 (GSK-3β [2]): 1 to 4 µM
Molecule: O=C(O)c1ccc(N2CCN(c3cc(NCCP(=O)(O)O)c4c5c(onc35)-c3ccccc3C4=O)CC2)cc1 [Compound 4-3]

Mode of inhibition versus ATP (GSK-3β [3]): non-competitive inhibitors for ATP | Mode of inhibition versus substrate (GSK-3β [3]): substrate competitive inhibitors | Inhibition of F93A mutant (GSK-3β-F93A mutant; 20 μM each): did not inhibit | Effect of Triton ×100 on inhibition of GSK-3β (GSK-3β [2]): not affected | IC50 (GSK-3β [2]): 1 to 4 µM
Molecule: O=C1c2ccccc2-c2onc3c(N4CCN(c5ccc(O)cc5)CC4)cc(NCCP(=O)(O)O)c1c23 [Compound 4-4]
Cytoplasmic β-catenin at higher doses (SH-SY5Y cells; 10 μM): reduction | Concentration sufficient to activate β-catenin in the cytoplasm (SH-SY5Y cells): 1 to 5 µM | β-catenin levels in soma and dendrites of neurons [1]: significant increase | Phosphorylation of tau (Ser 396) [4]: reduced | Selectivity over 30 protein kinases (30 protein kinases): showed specificity toward GSK-3α and GSK-3β

Inhibition of F93A mutant (GSK-3β-F93A mutant; 1 μM): inhibited | Inhibition of wild-type (WT) GSK-3β (GSK-3β [2]; 1 μM): inhibited
Molecule: Cn1cc(C2=C(c3ccc(Cl)cc3Cl)C(=O)NC2=O)c2ccccc21 [SB216763, reference compound]

Inhibition of F93A mutant (GSK-3β-F93A mutant; 20 μM each): barely inhibited
Molecule: KEAPPSPPQS(p)PF [Compound L803F, reference compound]
